Assay results reported in PubChem BioAssay (NCI).
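Briefly, cells in 96-well plates were exposed to five compound concentrations for 48 h, and endpoints were estimated by linear interpolation. TGI: concentration producing complete growth inhibition.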

Experiments:
Assay in all cases: NCI-60 cell line screen, 48 h
[1] = tested on: CCRF-CEM leukemia
[2] = tested on: OVCAR-3 ovarian
[3] = tested on: TK-10 renal
[4] = tested on: MALME-3M melanoma
[5] = tested on: DU-145 prostate
[6] = tested on: EKVX NSCLC
[7] = tested on: RPMI-8226 leukemia
[8] = tested on: MDA-N
[9] = tested on: SN12C renal
[10] = tested on: SK-OV-3 ovarian
[11] = tested on: HL-60(TB) leukemia

Row | Structure (SMILES) | TGI [1] | TGI [2] | TGI [3] | TGI [4] | TGI [5] | TGI [6] | TGI [7] | TGI [8] | TGI [9] | TGI [10] | TGI [11]
1 | COC(=O)c1sc2ncc3c(c2c1N)CCCCCC3 | > 100 µM | > 100 µM | > 100 µM | > 100 µM | > 100 µM | > 100 µM | > 100 µM | > 100 µM | > 100 µM | > 100 µM | –
2 | COc1ccc2nc3ccc(OC)cc3c(SCc3ccc([N+](=O)[O-])cc3)c2c1 | > 100 µM | > 100 µM | > 100 µM | > 100 µM | > 100 µM | > 100 µM | – | > 100 µM | > 100 µM | > 100 µM | > 100 µM
3 | Cc1nc(Nc2ccccc2Cl)sc1C(=O)CC(=O)C(=O)Nc1c(Cl)cccc1Cl | > 100 µM | 57.8 µM | > 100 µM | – | > 100 µM | 71.1 µM | > 100 µM | > 100 µM | > 100 µM | > 100 µM | 33.6 µM
4 | Nc1ccc2nc(Nc3ccc(F)cc3)cnc2c1 | > 100 µM | > 100 µM | > 100 µM | > 100 µM | – | > 100 µM | > 100 µM | – | > 100 µM | – | > 100 µM
5 | c1ccc(N=C(Nc2ccccc2)N2CCCCC2)cc1 | > 100 µM | > 100 µM | > 100 µM | > 100 µM | – | > 100 µM | > 100 µM | > 100 µM | > 100 µM | > 100 µM | > 100 µM
6 | Cc1ccc(C)n1-n1c(Cc2ccccc2)n[nH]c1=O | > 100 µM | > 100 µM | > 100 µM | > 100 µM | > 100 µM | > 100 µM | > 100 µM | > 100 µM | > 100 µM | > 100 µM | –
7 | O=C(CC(C(=O)c1cccs1)c1ccsc1)c1cccs1 (centres undefined) | > 100 µM | > 100 µM | > 100 µM | > 100 µM | > 100 µM | 76.8 µM | – | 80.5 µM | > 100 µM | > 100 µM | –
8 | O=C1C(N2CCNCC2)=C(Cl)C(=O)c2ncccc21 | > 10 µM | > 10 µM | > 10 µM | > 10 µM | > 10 µM | > 10 µM | > 10 µM | > 10 µM | > 10 µM | > 10 µM | –
9 | CCOC(=O)C(/C=N\C(=S)Nc1ccc(Cl)c(Cl)c1)=C(/O)c1ccccc1 | > 100 µM | – | – | > 100 µM | > 100 µM | > 100 µM | – | > 100 µM | > 100 µM | > 100 µM | > 100 µM
10 | N=C(N)N1CCC(N2CCOCC2)CC1 | > 100 µM | – | > 100 µM | > 100 µM | > 100 µM | > 100 µM | > 100 µM | – | > 100 µM | > 100 µM | > 100 µM
11 | CC(C)(C)c1cc(-c2cc(C(C)(C)C)n(-c3ccccc3)n2)nn1-c1ccccc1 | > 100 µM | > 100 µM | > 100 µM | – | > 100 µM | > 100 µM | > 100 µM | – | > 100 µM | > 100 µM | > 100 µM
12 | Nc1nc(N)c2c(n1)NC(=O)c1c(c3ccccc3n1Cc1ccc(Cl)cc1)C2 | 42.8 µM | 56.5 µM | 46.9 µM | > 100 µM | 29.3 µM | > 100 µM | – | 34.5 µM | 38.2 µM | 45.4 µM | 39.4 µM
13 | COc1ccc(C(=O)Cn2c(C(=O)/C=C/c3ccco3)nc3ccccc32)cc1 | > 100 µM | 72.3 µM | > 100 µM | > 100 µM | > 100 µM | – | 88.7 µM | > 100 µM | > 100 µM | 97.4 µM | 71.7 µM
14 | CNC(=O)c1n[nH]nc1Sc1c([N+](=O)[O-])ncn1C | > 100 µM | > 100 µM | > 100 µM | – | > 100 µM | > 100 µM | – | – | > 100 µM | > 100 µM | –
15 | c1ccc(Cc2nc(Cc3n[nH]c(Cc4ccccc4)n3)n[nH]2)cc1 | > 100 µM | > 100 µM | > 100 µM | – | > 100 µM | > 100 µM | > 100 µM | > 100 µM | > 100 µM | > 100 µM | –
16 | O/C(=C\c1nc2ccccc2nc1/C=C(\O)c1ccc(Cl)cc1)c1ccccc1 | > 100 µM | – | > 100 µM | > 100 µM | > 100 µM | > 100 µM | > 100 µM | – | > 100 µM | > 100 µM | –
17 | O=C(CC(C(=O)c1ccco1)c1ccsc1)c1ccco1 (centres undefined) | > 100 µM | > 100 µM | > 100 µM | – | > 100 µM | > 100 µM | > 100 µM | > 100 µM | > 100 µM | > 100 µM | > 100 µM
18 | CSc1nc(Cl)c(Br)c(Sc2nc(N)nc3nc[nH]c23)n1 | 9.38 µM | 29 µM | 20.9 µM | 26.4 µM | – | – | 16.4 µM | – | – | – | 13.3 µM
19 | O=C(O)CN1CCN2CCOCCOCCN(CC1)CCN(CC(=O)O)CC2 | > 100 µM | > 100 µM | > 100 µM | > 100 µM | > 100 µM | > 100 µM | > 100 µM | > 100 µM | > 100 µM | > 100 µM | –
20 | O=C1c2ccccc2C(=O)c2c(Nc3ccc4c5c(cccc35)C(=O)c3ccccc3-4)cccc21 | – | > 100 µM | > 100 µM | > 100 µM | > 100 µM | > 100 µM | – | > 100 µM | > 100 µM | – | –
21 | COC(=O)C1(c2cc3ccccc3n2S(=O)(=O)c2ccccc2)CC2C=CC1NC2 (centres undefined) | – | 5.43 µM | 4.85 µM | > 22.8 µM | 6.62 µM | 15.1 µM | 2.74 µM | 6.23 µM | 4.69 µM | 13.2 µM | 4.71 µM
22 | O=C(CNc1cccc([N+](=O)[O-])c1)Nn1c(-c2ccccc2)nc2ccccc2c1=O | 1.15 µM | 5.15 µM | 3.95 µM | 2.41 µM | 5.47 µM | 6.86 µM | 3.36 µM | – | 2.73 µM | 2.04 µM | 1.81 µM
23 | N#Cc1c(Cl)cccc1Oc1ccc(S(=O)(=O)/N=C(\NN)Nc2ccc(Cl)cc2)cc1 | – | 40.2 µM | 79.6 µM | – | 86.9 µM | 68.3 µM | 59.3 µM | 66.4 µM | 64 µM | > 100 µM | 47.7 µM
